{"source": "patent US6737383B1", "about": "“Herbicidal oxadiazolidines” (priority 1999, dated 2004)", "key": {"[1]": {"system": "bedstraw", "assay": "Test B pre/postemergence bedstraw", "type": "in vivo, Galium aparine", "in_short": "(§1)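 Herbicidal effect was estimated by eye on a ten-point control scale after plants spent twelve to sixteen days in a greenhouse following soil or foliar treatment. Foliar sprays targeted plants at one to four leaves; all doses were formulated in a non-phytotoxic solvent with surfactant.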"}, "[2]": {"system": "purple nutsedge", "assay": "Test B pre/postemergence purple nutsedge", "type": "in vivo, Cyperus rotundus", "in_short": "as §1"}, "[3]": {"system": "blackgrass", "assay": "Test B pre/postemergence blackgrass", "type": "in vivo, Alopecurus myosuroides", "in_short": "as §1"}, "[4]": {"system": "velvetleaf", "assay": "Test B pre/postemergence velvetleaf", "type": "in vivo, Abutilon theophrasti", "in_short": "as §1"}, "[5]": {"system": "soybean", "assay": "Test B pre/postemergence soybean", "type": "in vivo, Glycine max", "in_short": "as §1"}, "[6]": {"system": "sugar beet", "assay": "Test B pre/postemergence sugar beet", "type": "in vivo, Beta vulgaris", "in_short": "as §1"}, "[7]": {"system": "rape", "assay": "Test B pre/postemergence rape", "type": "in vivo, Brassica napus", "in_short": "as §1"}, "[8]": {"system": "pigweed", "assay": "Test B pre/postemergence pigweed", "type": "in vivo, Amaranthus retroflexus", "in_short": "as §1"}, "[9]": {"system": "morningglory", "assay": "Test B pre/postemergence morningglory", "type": "in vivo, Ipomoea hederacea", "in_short": "as §1"}, "[10]": {"system": "giant foxtail", "assay": "Test B pre/postemergence giant foxtail", "type": "in vivo, Setaria faberii", "in_short": "as §1"}, "[11]": {"system": "wild oat", "assay": "Test B pre/postemergence wild oat", "type": "in vivo, Avena fatua", "in_short": "as §1"}, "[12]": {"system": "wheat", "assay": "Test B pre/postemergence wheat", "type": "in vivo, Triticum aestivum", "in_short": "as §1"}, "[13]": {"system": "corn", "assay": "Test B pre/postemergence corn", "type": "in vivo, Zea mays", "in_short": "as §1"}, "[14]": {"system": "crabgrass", "assay": "Test B pre/postemergence crabgrass", "type": "in vivo, Digitaria sanguinalis", "in_short": "as §1"}, "[15]": {"system": "surinam grass", "assay": "Test B pre/postemergence surinam grass", "type": "in vivo, Brachiaria decumbens", "in_short": "as §1"}, "[16]": {"system": "cocklebur", "assay": "Test B pre/postemergence cocklebur", "type": "in vivo, Xanthium strumarium", "in_short": "as §1"}, "[17]": {"conditions": "Postemergence, Rate 125 g/ha, scale 0 to 10, 0 is no effect, 10 is complete control"}, "[18]": {"conditions": "Postemergence, Rate 500 g/ha, scale 0 to 10, 0 is no effect, 10 is complete control"}, "[19]": {"conditions": "Preemergence, Rate 62 g/ha, scale of 0 to 10 where 0 is no effect and 10 is complete control"}, "[20]": {"conditions": "Preemergence, Rate 125 g/ha, scale 0 to 10, 0 is no effect, 10 is complete control"}, "[21]": {"conditions": "Preemergence, Rate 250 g/ha, scale 0 to 10, 0 is no effect, 10 is complete control"}, "[22]": {"conditions": "Preemergence, Rate 500 g/ha, scale 0 to 10, 0 is no effect, 10 is complete control"}, "[23]": {"conditions": "Postemergence, Rate 62 g/ha, scale of 0 to 10, 0 is no effect, 10 is complete control"}, "[24]": {"conditions": "Preemergence, Rate 500 g/ha, scale of 0 to 10 where 0 is no effect and 10 is complete control"}, "[25]": {"conditions": "Postemergence, Rate 250 g/ha, scale 0 to 10"}}, "data": [{"smiles": "CCOCn1c(=O)on(C(=O)N(c2ccc(F)cc2F)C(C)C)c1=O", "note": "[Compound 504]", "values": [{"measurement": "Bedstraw plant response rating", "setting": "[1]; [17]", "result": 8}, {"measurement": "Plant response rating, Bedstraw", "setting": "[1]; [18]", "result": 9}, {"measurement": "Plant response rating, Bedstraw", "setting": "[1]; [19]", "result": 2}, {"measurement": "Bedstraw plant response rating", "setting": "[1]; [20]", "result": 5}, {"measurement": "Bedstraw plant response rating", "setting": "[1]; [21]", "result": 8}, {"measurement": "Bedstraw plant response rating", "setting": "[1]; [22]", "result": 8}, {"measurement": "Nutsedge plant response rating", "setting": "[2]; [23]", "result": 0}, {"measurement": "Nutsedge plant response rating", "setting": "[2]; [17]", "result": 0}, {"measurement": "Plant response rating, Nutsedge", "setting": "[2]; [18]", "result": 3}, {"measurement": "Plant response rating, Nutsedge", "setting": "[2]; [19]", "result": 2}, {"measurement": "Nutsedge plant response rating", "setting": "[2]; [20]", "result": 0}, {"measurement": "Nutsedge plant response rating", "setting": "[2]; [24]", "result": 8}, {"measurement": "Blackgrass plant response rating", "setting": "[3]; [23]", "result": 6}, {"measurement": "Blackgrass plant response rating", "setting": "[3]; [17]", "result": 7}, {"measurement": "Blackgrass plant response rating", "setting": "[3]; [25]", "result": 7}, {"measurement": "Plant response rating, Blackgrass", "setting": "[3]; [18]", "result": 8}, {"measurement": "Plant response rating, Blackgrass", "setting": "[3]; [19]", "result": 6}, {"measurement": "Blackgrass plant response rating", "setting": "[3]; [20]", "result": 8}, {"measurement": "Blackgrass plant response rating", "setting": "[3]; [21]", "result": 10}, {"measurement": "Blackgrass plant response rating", "setting": "[3]; [24]", "result": 10}, {"measurement": "Velvetleaf plant response rating", "setting": "[4]; [23]", "result": 1}, {"measurement": "Velvetleaf plant response rating", "setting": "[4]; [17]", "result": 4}, {"measurement": "Plant response rating, Velvetleaf", "setting": "[4]; [18]", "result": 7}, {"measurement": "Plant response rating, Velvetleaf", "setting": "[4]; [19]", "result": 1}, {"measurement": "Velvetleaf plant response rating", "setting": "[4]; [20]", "result": 5}, {"measurement": "Velvetleaf plant response rating", "setting": "[4]; [24]", "result": 10}, {"measurement": "Soybean plant response rating", "setting": "[5]; [23]", "result": 3}, {"measurement": "Soybean plant response rating", "setting": "[5]; [17]", "result": 6}, {"measurement": "Plant response rating, Soybean", "setting": "[5]; [18]", "result": 7}, {"measurement": "Plant response rating, Soybean", "setting": "[5]; [19]", "result": 0}, {"measurement": "Soybean plant response rating", "setting": "[5]; [20]", "result": 0}, {"measurement": "Soybean plant response rating", "setting": "[5]; [24]", "result": 5}, {"measurement": "Sugarbeets plant response rating", "setting": "[6]; [23]", "result": 5}, {"measurement": "Sugarbeets plant response rating", "setting": "[6]; [17]", "result": 7}, {"measurement": "Plant response rating, Sugarbeets", "setting": "[6]; [18]", "result": 9}, {"measurement": "Plant response rating, Sugarbeets", "setting": "[6]; [19]", "result": 4}, {"measurement": "Sugarbeets plant response rating", "setting": "[6]; [20]", "result": 6}, {"measurement": "Sugarbeets plant response rating", "setting": "[6]; [24]", "result": 9}, {"measurement": "Rape plant response rating", "setting": "[7]; [23]", "result": 1}, {"measurement": "Rape plant response rating", "setting": "[7]; [17]", "result": 4}, {"measurement": "Plant response rating, Rape", "setting": "[7]; [18]", "result": 8}, {"measurement": "Plant response rating, Rape", "setting": "[7]; [19]", "result": 5}, {"measurement": "Rape plant response rating", "setting": "[7]; [20]", "result": 10}, {"measurement": "Rape plant response rating", "setting": "[7]; [24]", "result": 10}, {"measurement": "Redroot pigweed plant response rating", "setting": "[8]; [23]", "result": 7}, {"measurement": "Redroot pigweed plant response rating", "setting": "[8]; [17]", "result": 8}, {"measurement": "Plant response rating, Redroot pigweed", "setting": "[8]; [18]", "result": 9}, {"measurement": "Plant response rating, Redroot pigweed", "setting": "[8]; [19]", "result": 10}, {"measurement": "Redroot pigweed plant response rating", "setting": "[8]; [20]", "result": 10}, {"measurement": "Redroot pigweed plant response rating", "setting": "[8]; [24]", "result": 10}, {"measurement": "Morningglory plant response rating", "setting": "[9]; [23]", "result": 4}, {"measurement": "Morningglory plant response rating", "setting": "[9]; [17]", "result": 4}, {"measurement": "Plant response rating, Morningglory", "setting": "[9]; [18]", "result": 6}, {"measurement": "Plant response rating, Morningglory", "setting": "[9]; [19]", "result": 0}, {"measurement": "Morningglory plant response rating", "setting": "[9]; [20]", "result": 0}, {"measurement": "Morningglory plant response rating", "setting": "[9]; [24]", "result": 4}, {"measurement": "Giant foxtail plant response rating", "setting": "[10]; [23]", "result": 8}, {"measurement": "Giant foxtail plant response rating", "setting": "[10]; [17]", "result": 9}, {"measurement": "Plant response rating, Giant foxtail", "setting": "[10]; [18]", "result": 9}, {"measurement": "Plant response rating, Giant foxtail", "setting": "[10]; [19]", "result": 9}, {"measurement": "Giant foxtail plant response rating", "setting": "[10]; [20]", "result": 9}, {"measurement": "Giant foxtail plant response rating", "setting": "[10]; [24]", "result": 10}, {"measurement": "Wild oats plant response rating", "setting": "[11]; [23]", "result": 0}, {"measurement": "Wild oats plant response rating", "setting": "[11]; [17]", "result": 6}, {"measurement": "Plant response rating, Wild oats", "setting": "[11]; [18]", "result": 7}, {"measurement": "Plant response rating, Wild oats", "setting": "[11]; [19]", "result": 6}, {"measurement": "Wild oats plant response rating", "setting": "[11]; [20]", "result": 8}, {"measurement": "Wild oats plant response rating", "setting": "[11]; [24]", "result": 10}, {"measurement": "Wheat plant response rating", "setting": "[12]; [23]", "result": 0}, {"measurement": "Wheat plant response rating", "setting": "[12]; [17]", "result": 3}, {"measurement": "Plant response rating, Wheat", "setting": "[12]; [18]", "result": 6}, {"measurement": "Plant response rating, Wheat", "setting": "[12]; [19]", "result": 2}, {"measurement": "Wheat plant response rating", "setting": "[12]; [20]", "result": 6}, {"measurement": "Wheat plant response rating", "setting": "[12]; [24]", "result": 8}, {"measurement": "Corn plant response rating", "setting": "[13]; [23]", "result": 0}, {"measurement": "Corn plant response rating", "setting": "[13]; [17]", "result": 2}, {"measurement": "Corn plant response rating", "setting": "[13]; [25]", "result": 2}, {"measurement": "Plant response rating, Corn", "setting": "[13]; [18]", "result": 6}, {"measurement": "Plant response rating, Corn", "setting": "[13]; [19]", "result": 0}, {"measurement": "Corn plant response rating", "setting": "[13]; [20]", "result": 5}, {"measurement": "Corn plant response rating", "setting": "[13]; [24]", "result": 6}, {"measurement": "Crabgrass plant response rating", "setting": "[14]; [23]", "result": 8}, {"measurement": "Crabgrass plant response rating", "setting": "[14]; [17]", "result": 8}, {"measurement": "Crabgrass plant response rating", "setting": "[14]; [25]", "result": 9}, {"measurement": "Plant response rating, Crabgrass", "setting": "[14]; [18]", "result": 10}, {"measurement": "Plant response rating, Crabgrass", "setting": "[14]; [19]", "result": 6}, {"measurement": "Crabgrass plant response rating", "setting": "[14]; [20]", "result": 6}, {"measurement": "Crabgrass plant response rating", "setting": "[14]; [24]", "result": 10}, {"measurement": "B. signalgrass plant response rating", "setting": "[15]; [23]", "result": 0}, {"measurement": "B. signalgrass plant response rating", "setting": "[15]; [17]", "result": 3}, {"measurement": "B. signalgrass plant response rating", "setting": "[15]; Postemergence, Rate 250 g/ha, scale 0 to 10, 0 no effect, 10 complete control", "result": 8}, {"measurement": "Plant response rating, B. signalgrass", "setting": "[15]; [18]", "result": 9}, {"measurement": "Plant response rating, B. signalgrass", "setting": "[15]; [19]", "result": 7}, {"measurement": "B. signalgrass plant response rating", "setting": "[15]; [20]", "result": 10}, {"measurement": "B. signalgrass plant response rating", "setting": "[15]; [21]", "result": 10}, {"measurement": "B. signalgrass plant response rating", "setting": "[15]; [22]", "result": 10}, {"measurement": "Cocklebur plant response rating", "setting": "[16]; [23]", "result": 2}, {"measurement": "Cocklebur plant response rating", "setting": "[16]; [17]", "result": 3}, {"measurement": "Cocklebur plant response rating", "setting": "[16]; [25]", "result": 6}, {"measurement": "Plant response rating, Cocklebur", "setting": "[16]; [18]", "result": 6}, {"measurement": "Plant response rating, Cocklebur", "setting": "[16]; [19]", "result": 0}, {"measurement": "Cocklebur plant response rating", "setting": "[16]; [20]", "result": 0}, {"measurement": "Cocklebur plant response rating", "setting": "[16]; [21]", "result": 0}, {"measurement": "Cocklebur plant response rating", "setting": "[16]; [24]", "result": 0}]}]}
